Data published in US20210188843A1, “QUINOLINE COMPOUNDS AND THEIR PREPARATION AND USE AS ANTIMALARIAL AGENTS” (The United States of America,as represented by the …, priority 2018, published 2021).
Values after ≈ are worked out from the molar mass of the structure shown. Like-named read-outs stand apart in the source and are kept apart here.

Columns and labels:
[1] = Microsomal stability (rat); type: in vitro ADME; conditions: rat microsomes
Solubility pH 7.4 = type: physicochemical; conditions: aqueous buffer
[2] = system: Asexual parasites of P. falciparum strain 3D7; experiment: In vitro drug activity on asexual parasites (SYBR Green assay); type: cell-based; conditions: Plasmodium falciparum, read-out: Asexual EC50
In short: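 3D7 asexual cultures at 0.5% parasitemia and 2% hematocrit were exposed to drug (DMSO <0.5%) for 72 h under standard culture conditions, in duplicate with no-drug and RBC-only controls. After freeze-thaw lysis, SYBR Green I lysis buffer was added for 30 min at room temperature; fluorescence was read at 490 nm excitation/520 nm emission.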

PAMPA permeability = type: in vitro ADME
[3] = Table 2, read-out: Microsomal Stability (rat) T1/2
[4] = Table 2, P. falciparum 3D7 asexual stage, 72 h
[5] = Table 3, read-out: Microsomal Stability (rat) T1/2
[6] = Table 3, P. falciparum 3D7 asexual stage, 72 h
[7] = Table 1, P. falciparum 3D7 asexual stage, 72 h
[8] = Table 1, read-out: Microsomal Stability (rat) T1/2

SMILES	solubility (Solubility pH 7.4; Table 1) [µg/mL]	EC50 [2, 7] [nM]	half-life [1, 8] [min]	further results
CN(C)CCN1CCN(C(=O)c2ccc(-n3/c(=N\C#N)ccc4cnc5ccc(-c6ccc(Cl)cc6)cc5c43)cc2)CC1				half-life [1, 3]: > 30 min; solubility (Solubility pH 7.4; Table 2): 3.2 µg/mL (≈ 5.42 µM); EC50 [2, 4]: 45.4 nM; Papp (PAMPA permeability; Table 2): 8.8 ×10⁻⁶ cm/s
N=c1ccc2cnc3ccc(-c4ccc(Cl)cc4)cc3c2n1-c1cccc(Cl)c1				half-life [1, 3]: > 30 min; solubility (Solubility pH 7.4; Table 2): 20.7 µg/mL (≈ 49.7 µM); EC50 [2, 4]: 178 nM; Papp (PAMPA permeability; Table 2): 1240 ×10⁻⁶ cm/s
CCC(=O)/N=c1/ccc2cnc3ccc(-c4ccc(Cl)cc4)cc3c2n1-c1ccc(C(=O)NC2CC2)cc1				half-life [1, 3]: 4.8 min; solubility (Solubility pH 7.4; Table 2): < 1 µg/mL; EC50 [2, 4]: 47.5 nM; Papp (PAMPA permeability; Table 2): 445 ×10⁻⁶ cm/s
C/N=c1\ccc2cnc3ccc(-c4ccc(Cl)cc4)cc3c2n1-c1ccc(C(=O)NC2CC2)cc1				half-life [1, 3]: 17.4 min; solubility (Solubility pH 7.4; Table 2): < 1 µg/mL; EC50 [2, 4]: 1210 nM; Papp (PAMPA permeability; Table 2): 130 ×10⁻⁶ cm/s
N=c1ccc2cnc3ccc(-c4ccc(N)nc4)cc3c2n1-c1cccc(C(F)(F)F)c1				half-life [1, 3]: > 30 min; solubility (Solubility pH 7.4; Table 2): > 64 µg/mL; EC50 [2, 4]: 21.8 nM; Papp (PAMPA permeability; Table 2): 228 ×10⁻⁶ cm/s
Cn1c(=N)n(-c2cncnc2)c2c3cc(-c4ccc(F)cc4)ccc3ncc21				half-life [1, 5]: > 30 min; solubility (Solubility pH 7.4; Table 3): 2 µg/mL (≈ 5.4 µM); EC50 [2, 6]: 194 nM; Papp (PAMPA permeability; Table 3): 26.2 ×10⁻⁶ cm/s
Cn1c(=N)n(-c2cncnc2)c2c3cc(-c4ccc(N)nc4)ccc3ncc21				half-life [1, 5]: > 30 min; solubility (Solubility pH 7.4; Table 3): 33.9 µg/mL (≈ 92 µM); EC50 [2, 6]: 143 nM; Papp (PAMPA permeability; Table 3): 12.9 ×10⁻⁶ cm/s
Cc1ccc(-c2ccc3ncc4c(c3c2)n(-c2cncnc2)c(=N)n4C)cc1				half-life [1, 5]: > 30 min; solubility (Solubility pH 7.4; Table 3): 18.5 µg/mL (≈ 50.5 µM); EC50 [2, 6]: 230 nM; Papp (PAMPA permeability; Table 3): 32.3 ×10⁻⁶ cm/s
Cn1c(=N)n(-c2cncnc2)c2c3cc(-c4cccc(F)c4)ccc3ncc21				half-life [1, 5]: > 30 min; solubility (Solubility pH 7.4; Table 3): 24.9 µg/mL (≈ 67.2 µM); EC50 ([2]; 3D7, 72 h): 169 nM; Papp (PAMPA permeability; Table 3): 60.6 ×10⁻⁶ cm/s
COc1ccc(-c2ccc3ncc4c(c3c2)n(-c2nccnc2C)c(=N)n4C)cc1OC				solubility (Solubility pH 7.4; Table 3): > 63 µg/mL; EC50 [2, 6]: 58 nM; Papp (PAMPA permeability; Table 3): 1240 ×10⁻⁶ cm/s
Cn1c(=N)n(-c2ccccc2O)c2c3cc(-c4ccc(Cl)cc4)ccc3ncc21 [Compound 83, 2-(8-(4-chlorophenyl)-2-imino-3-methyl-2,3-dihydro-1H-imidazo[4,5-c]quinolin-1-yl)phenol]	< 1	593		Papp (PAMPA permeability; Table 1): 859 ×10⁻⁶ cm/s
Cc1ccc(C(N)=O)cc1-n1c(=N)n(C)c2cnc3ccc(-c4ccc(Cl)cc4)cc3c21 [Compound 92, 3-(8-(4-chlorophenyl)-2-imino-3-methyl-2,3-dihydro-1H-imidazo[4,5-c]quinolin-1-yl)-4-methylbenzamide]	> 44		> 30	Papp (PAMPA permeability; Table 1): 2 ×10⁻⁶ cm/s
COc1ccc(-c2ccc3ncc4c(c3c2)n(-c2cc(C#N)ccc2C)c(=N)n4C)cn1 [Compound 103, 3-(2-imino-8-(6-methoxypyridin-3-yl)-3-methyl-2,3-dihydro-1H-imidazo[4,5-c]quinolin-1-yl)-4-methylbenzonitrile]	> 42	163	> 30	
Cc1cc(NCCN(C)C)c(C#N)cc1-n1c(=N)n(C)c2cnc3ccc(-c4ccc(Cl)cc4)cc3c21 [Compound 113, 5-(8-(4-chlorophenyl)-2-imino-3-methyl-2,3-dihydro-1H-imidazo[4,5-c]quinolin-1-yl)-2-((2-(dimethylamino)ethyl)amino)-4-methylbenzonitrile]	> 50	546	> 30	
Cc1cc(N2CCC(O)CC2)c(C#N)cc1-n1c(=N)n(C)c2cnc3ccc(-c4ccc(Cl)cc4)cc3c21 [Compound 114, 5-(8-(4-chlorophenyl)-2-imino-3-methyl-2,3-dihydro-1H-imidazo[4,5-c]quinolin-1-yl)-2-(4-hydroxypiperidin-1-yl)-4-methylbenzonitrile]	< 1	55.2	> 30	
Cc1ccc(S(C)(=O)=O)cc1-n1c(=N)n(C)c2cnc3ccc(-c4ccc(Cl)cc4)cc3c21 [Compound 122, 8-(4-chlorophenyl)-3-methyl-1-(2-methyl-5-(methylsulfonyl)phenyl)-1,3-dihydro-2H-imidazo[4,5-c]quinolin-2-imine]	> 47	1610	> 30	
Cc1cc(N2CCNC(C)C2)c(C#N)cc1-n1c(=N)n(C)c2cnc3ccc(-c4ccc(Cl)cc4)cc3c21 (stereo not drawn) [Compound 124, 5-(8-(4-chlorophenyl)-2-imino-3-methyl-2,3-dihydro-1H-imidazo[4,5-c]quinolin-1-yl)-4-methyl-2-(3-methylpiperazin-1-yl)benzonitrile]	1.9 (≈ 3.64 µM)	217	> 30	
Cc1cc(N2CCN(C)CC2)c(C#N)cc1-n1c(=N)n(C)c2cnc3ccc(-c4cccc(F)c4)cc3c21 [Compound 144, 5-(8-(3-fluorophenyl)-2-imino-3-methyl-2,3-dihydro-1H-imidazo[4,5-c]quinolin-1-yl)-4-methyl-2-(4-methylpiperazin-1-yl)benzonitrile]	> 50	159	> 30	
COC(=O)/N=c1\n(C)c2cnc3ccc(-c4cccc(F)c4)cc3c2n1-c1cc(C#N)c(N2CCN(C)CC2)cc1C [Compound 146, Methyl (E)-(1-(5-cyano-2-methyl-4-(4-methylpiperazin-1-yl)phenyl)-8-(3-fluorophenyl)-3-methyl-1,3-dihydro-2H-imidazo[4,5-c]quinolin-2-ylidene)carbamate]	14.5 (≈ 25.7 µM)	62.7	21.2	

More lines, main results first:

solubility (Solubility pH 7.4; Table 1) [µg/mL]	EC50 [2, 7] [nM]	half-life [1, 8] [min]	SMILES	further results
> 41	3180	> 30	Cc1cccc(C)c1-n1c(=N)n(C)c2cnc3ccc(-c4ccc(Cl)cc4)cc3c21 [Compound 99, 8-(4-chlorophenyl)-1-(2,6-dimethylphenyl)-3-methyl-1,3-dihydro-2H-imidazo[4,5-c]quinolin-2-imine]	
2.2 (≈ 4.54 µM)	3.07	> 30	Cc1ccc(C#N)cc1-n1/c(=N/S(N)(=O)=O)n(C)c2cnc3ccc(-c4ccc(N)nc4)cc3c21 [Compound 101, (8-(6-aminopyridin-3-yl)-1-(5-cyano-2-methylphenyl)-3-methyl-1,3-dihydro-2H-imidazo[4,5-c]quinolin-2-ylidene)sulfonamide]	
22.3 (≈ 57 µM)	4780	> 30	Cn1c(=N)n(C2CCCCC2)c2c3cc(-c4ccc(Cl)cc4)ccc3ncc21 [Compound 102, 8-(4-chlorophenyl)-1-cyclohexyl-3-methyl-1,3-dihydro-2H-imidazo[4,5-c]quinolin-2-imine]	
> 44	411	> 30	CCC(=O)N1CCC(n2c(=N)n(C)c3cnc4ccc(-c5ccc(Cl)cc5)cc4c32)CC1 [Compound 104, 1-(4-(8-(4-chlorophenyl)-2-imino-3-methyl-2,3-dihydro-1H-imidazo[4,5-c]quinolin-1-yl)piperidin-1-yl)propan-1-one]	
> 55	125	> 30	Cc1cc(N2CCN(CCO)CC2)c(C#N)cc1-n1c(=N)n(C)c2cnc3ccc(-c4ccc(Cl)cc4)cc3c21 [Compound 115, 5-(8-(4-chlorophenyl)-2-imino-3-methyl-2,3-dihydro-1H-imidazo[4,5-c]quinolin-1-yl)-2-(4-(2-hydroxyethyl)piperazin-1-yl)-4-methylbenzonitrile]	
< 1	373	> 30	Cc1cc(N2CC(C)OC(C)C2)c(C#N)cc1-n1c(=N)n(C)c2cnc3ccc(-c4ccc(Cl)cc4)cc3c21 (stereo not drawn) [Compound 117, 5-(8-(4-chlorophenyl)-2-imino-3-methyl-2,3-dihydro-1H-imidazo[4,5-c]quinolin-1-yl)-2-(2,6-dimethylmorpholino)-4-methylbenzonitrile]	
< 1	135	> 30	Cc1cc(N2CCN(S(C)(=O)=O)CC2)c(C#N)cc1-n1c(=N)n(C)c2cnc3ccc(-c4ccc(Cl)cc4)cc3c21 [Compound 118, 5-(8-(4-chlorophenyl)-2-imino-3-methyl-2,3-dihydro-1H-imidazo[4,5-c]quinolin-1-yl)-4-methyl-2-(4-(methylsulfonyl)piperazin-1-yl)benzonitrile]	
< 1	88.6	> 30	Cc1cc(NS(C)(=O)=O)c(C#N)cc1-n1c(=N)n(C)c2cnc3ccc(-c4ccc(Cl)cc4)cc3c21 [Compound 123, N-(4-(8-(4-chlorophenyl)-2-imino-3-methyl-2,3-dihydro-1H-imidazo[4,5-c]quinolin-1-yl)-2-cyano-5-methylphenyl)methanesulfonamide]	
2.2 (≈ 3.99 µM)	14.5	> 30	Cc1cc(N2CCN(C(N)=O)CC2)c(C#N)cc1-n1c(=N)n(C)c2cnc3ccc(-c4ccc(Cl)cc4)cc3c21 [Compound 126, 4-(4-(8-(4-chlorophenyl)-2-imino-3-methyl-2,3-dihydro-1H-imidazo[4,5-c]quinolin-1-yl)-2-cyano-5-methylphenyl)piperazine-1-carboxamide]	
> 49	225	> 30	Cc1nc(N2CCOCC2)c(C#N)cc1-n1c(=N)n(C)c2cnc3ccc(-c4cccc(F)c4)cc3c21 [Compound 142, 5-(8-(3-fluorophenyl)-2-imino-3-methyl-2,3-dihydro-1H-imidazo[4,5-c]quinolin-1-yl)-6-methyl-2-morpholinonicotinonitrile]	
1.4 (≈ 3.39 µM)	1750	> 30	Cc1ccc(C#N)cc1-n1c(=N)n(C)c2cnc3ccc(C#Cc4ccccc4)cc3c21 [Compound 154, 3-(2-imino-3-methyl-8-(phenylethynyl)-2,3-dihydro-H-imidazo[4,5-c]quinolin-1-yl)-4-methylbenzonitrile]	
